pIC50: −log10 of the molar value. “Also recorded” adds a separate entry of the source.
Columns and labels:
MMP-13 = target: T1, MMP-13 (Homo sapiens, UniProt P45452); assay: Assay for inhibitory activities on MMP-13; type: biochemical; conditions: catalytic domain, substrate MOCAc-Pro-Leu-Gly-Leu-A2Pr(DNP)-Ala-Arg-NH2; read-out: MMP-13 (IC50μM)
T1 construct: catalytic domain (^104Tyr˜^267Gly) was amplified with RT-PCR; His-tag; enterokinase digestion-site; made in house
Method: In regard to MMP-13, mRNA was prepared from carcinoma cell SW1353 derived from human cartilage stimulate by IL-1, TNF and catalytic domain (^[…]) was amplified with RT-PCR. This was cloned in Escherichia. coli expression vector […] inserted with His-tag sequence and enterokinase digestion-site, induced and expressed by IPTG (Isopropyl-β-D-thiogalactopyranoside) and expressed in a insoluble fraction. Isolation of MMP-13 from an insoluble fraction was carried out by dissolving in modifier (6M urea) by a usual method and purification with metal chelate chromatography (Ni […] Sepharose). […] The enzymatic activity on MMP was analyzed by the method described in “C. Graham Knight, Frances Willenbrock and Gillian Murphy: A novel coumarin-labelled peptide for sensitive continuous assays of the matrix metalloproteinases: […] The substrate: MOCAc-[…] was purchased from Peptide Institute, Inc., Osaka, Japan.

[1] = system: cartilage disks of juvenile rabbits, IL-1 stimulated GAG release; assay: Cartilage culture test (IL-1 induced GAG release); type: cell-based, rabbit; conditions: stated in text for the compound of FIG. 1
Method: Cartilage disks (2 mm in diameter) were prepared from the cartilage of juvenile rabbits (3 weeks). Cartilage disks were transferred and cultured individually in the wells of a 48-well tissue culture plate containing DMEM/10% FCS for over 3 days at 37° C. In the night before the test, the medium of DMEM was changed to that not containing FCS. Next morning, IL-1 (4 ng/ml) and a test compound were added to the plate. It is provided that some wells of a plate contain only IL-1 (not containing test compound) and that some wells are vehicle (not containing IL-1 and test compound). After 4 days from the IL-1 addition, the amount of released glycosaminoglycan (GAG) was measured after collecting culture supernatant and cartilage disks.
Quantitation of GAG release was as follows; the weight of the cartilage disk was measured, then 200 μl of a papain digestion buffer solution (1 mM EDTA, 2 mM DTT, 20 mM Tris, (pH 7.0), Papain (300 μg/ml)) was added to each well and the plate containing the digestive solution was incubated for 2 h at 65° C. 50 μl of 100 mM Iodoacetatic acid (pH 7.0) was added for stopping the digestion. The extracts of cartilage are centrifuged at 12000 rpm for 5 min. […] The amount of released GAG in the transferred solution was quantitated by using a proteoglycan & glycosaminoglycan assay kit (Blyscan, Funakoshi Co., Ltd, Tokyo, Japan).

aggrecanase = assay: Aggrecanase inhibitory activity test (western blot with anti ARGSV antibody); type: cell-based, rabbit; conditions: 4 days culture supernatant containing both IL-1 and test compound
Method: To 50 μl of the above 4 days cultured supernatant (not including IL-1 and a test compound, including IL-1 only, including both IL-1 and a test compound) was added a 5 volume solution of 95% EtOH containing 1.3% (w/v) potassium acetate. After the mixed solution was stood at −20° C. for 30 min, the solution was centrifuged to obtain a precipitation. The precipitation was solubilized in 100 μl of 25 mM Tris-hydrochloric acid buffer solution (pH7.6) containing 5 mM calcium chloride*0.15M sodium chloride*0.0025% Brij35. After addition of 5 μl of 250 mM ethylenediaminetetraacetic acid, and 2.5 μl each of 1M sodium acetate (pH6.0) and 1M Tris-hydrochloric acid (pH7.9) to the solution, 2.5 μl of 0.02 units/μl Chondroitinase ABC and 1.0 μl of 0.1 units/μl Keratanase (Both are Seikagaku Kogyo, Japan) were added and the mixture was incubated at 37° C. for 16 h to remove GAG. […]
In the culture supernatant containing only IL-1, the 250 kDa aggrecanase-generated fragment of aggrecan which was recognized by anti N-terminus neoepitope antibody was observed, which was not detected in the supernatant not containing IL-1 and a test compound (XXI). On the other hand, in the culture supernatant containing both IL-1 and a test compound (XXI), the 250 kDa aggrecanase-generated fragment was not detected.

With `CCc1ccc(-c2nc(-c3ccc(S(=O)(=O)N[C@H](Cc4ccccc4)C(=O)O)s3)no2)cc1` [Compound N-8] the pIC50 (MMP-13) was 6.74.
For `O=C(O)[C@H]1[C@@H]2CC[C@@H](C2)[C@@H]1NS(=O)(=O)c1ccc(-c2ccon2)s1` [Compound O-1], the pIC50 (MMP-13) was < 5.00.
`O=C(O)[C@H]1[C@@H]2CC[C@@H](C2)[C@@H]1NS(=O)(=O)c1ccc(-c2ccc(N3CCCC3)cc2)s1` [Compound O-2] showed a pIC50 (MMP-13) of 6.47.
Compound `CN(C)c1ccc(-c2ccc(S(=O)(=O)N[C@H]3CCC[C@@H]3C(=O)O)s2)cc1` [Compound O-3] has a pIC50 (MMP-13) of 6.45.
`CCCCc1ccc(-n2nnc(-c3ccc(S(=O)(=O)NC4(C(=O)O)CCCCC4)cc3)n2)cc1` [Compound O-4] showed a pIC50 (MMP-13) of 7.94.
For `Cc1ccc(-c2ccc(-c3ccc(S(=O)(=O)NCCCC(=O)O)cc3)s2)cc1` [Compound O-5], the pIC50 (MMP-13) was < 5.00.
`O=C(O)CCCNS(=O)(=O)c1ccc(-c2ccc(N3CCCC3)cc2)s1` [Compound O-6] gave a pIC50 (MMP-13) of 5.50.
`CSc1ccc(-c2ccc(S(=O)(=O)N3CCNC(=O)C3C)cc2)cc1` (stereo not shown) [Compound O-7] showed a pIC50 (MMP-13) of 6.05.
Work on `CC1C(=O)NCCN1S(=O)(=O)c1ccc(-c2ccc(N3CCOCC3)cc2)s1` (stereo not shown) [Compound O-8] yielded a pIC50 (MMP-13) of 5.52.
`Cc1ccc(C#Cc2ccc(S(=O)(=O)Nc3cc(Cl)ccc3C(=O)O)s2)cc1` [Compound O-9] was tested, and the pIC50 (MMP-13) was < 5.00.
For `O=C(O)[C@@H]1[C@@H](NS(=O)(=O)c2ccc(-c3ccc(N4CCCC4)cc3)s2)[C@H]2C=C[C@@H]1C2` [Compound O-10], the pIC50 (MMP-13) was 6.22.
With `CC(C)C(NS(=O)(=O)c1ccc(Oc2ccccc2)cc1)C(=O)NO` (stereo not shown) [XXI] the GAG value [1] was 87 and the “250 kDa aggrecanase-generated fragment of aggrecan (new N-terminus ARGSV), western blot” value (aggrecanase) was “inhibits the production of aggrecanase-generated new N-terminus (ARGSV); also recorded: not detected”.
